{"source": "paper PMC12455996", "about": "“TGF-β inhibitor SB431542 suppresses SARS-CoV-2 replication through multistep inhibition” (Journal of Virology, 2025)", "molecular_target": "T1, SARS-CoV-2 ORF3a (Severe acute respiratory syndrome coronavirus 2, UniProt P0DTC3)", "T1 construct": "gene 3a", "T1 sequence (P0DTC3 whole entry)": "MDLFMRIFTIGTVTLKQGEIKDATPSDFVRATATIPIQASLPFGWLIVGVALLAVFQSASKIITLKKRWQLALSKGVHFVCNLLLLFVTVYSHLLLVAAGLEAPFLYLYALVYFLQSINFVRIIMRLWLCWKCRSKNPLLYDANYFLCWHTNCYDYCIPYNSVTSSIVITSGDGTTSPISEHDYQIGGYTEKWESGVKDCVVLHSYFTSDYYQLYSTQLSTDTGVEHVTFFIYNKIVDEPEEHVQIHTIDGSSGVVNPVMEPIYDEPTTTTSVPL", "test": "isothermal titration calorimetry", "type": "binding", "data": [{"compound": "NC(=O)c1ccc(-c2nc(-c3ccc4c(c3)OCO4)c(-c3ccccn3)[nH]2)cc1", "note": "[SB431542]", "values": [{"measurement": "Kd", "result": "220 ± 68.1", "unit": "nM"}]}]}
